Experimental data taken from PubChem BioAssay (NCI).
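Grown in 96-well plates, cells were treated for 48 hours with each compound at five concentrations. Insufficient inhibition: endpoint recorded as highest concentration tested. GI50 is the concentration that inhibits growth by half. The concentration for full growth arrest is given as TGI.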

Legend:
Experiment in all cases: DTP human tumour cell line panel, 48 h
ACHN renal = tested on: ACHN renal
OVCAR-5 ovarian = tested on: OVCAR-5 ovarian
NCI-H23 lung = tested on: NCI-H23 lung
A549 NSCLC = tested on: A549 NSCLC
MOLT-4 leukemia = tested on: MOLT-4 leukemia
UO-31 renal = tested on: UO-31 renal
NCI-H226 lung = tested on: NCI-H226 lung
NCI/ADR-RES ovarian = tested on: NCI/ADR-RES ovarian
MCF7 breast = tested on: MCF7 breast
NCI-H522 lung = tested on: NCI-H522 lung
DU-145 prostate = tested on: DU-145 prostate
UACC-257 melanoma = tested on: UACC-257 melanoma
CAKI-1 renal = tested on: CAKI-1 renal
HCT-15 colon = tested on: HCT-15 colon
A498 renal = tested on: A498 renal
KM12 colon = tested on: KM12 colon
SF-539 CNS = tested on: SF-539 CNS
BT-549 breast = tested on: BT-549 breast
SF-295 CNS = tested on: SF-295 CNS
UACC-62 melanoma = tested on: UACC-62 melanoma
MALME-3M melanoma = tested on: MALME-3M melanoma
M14 melanoma = tested on: M14 melanoma
SK-MEL-2 melanoma = tested on: SK-MEL-2 melanoma
MDA-MB-231 breast = tested on: MDA-MB-231 breast
HL-60(TB) leukemia = tested on: HL-60(TB) leukemia
SW-620 colon = tested on: SW-620 colon
HS 578T breast = tested on: HS 578T breast
MDA-MB-435 = tested on: MDA-MB-435
PC-3 prostate = tested on: PC-3 prostate
SK-MEL-5 melanoma = tested on: SK-MEL-5 melanoma
CCRF-CEM leukemia = tested on: CCRF-CEM leukemia
TK-10 renal = tested on: TK-10 renal
NCI-H460 lung = tested on: NCI-H460 lung
HT29 colon = tested on: HT29 colon
OVCAR-4 ovarian = tested on: OVCAR-4 ovarian
SK-OV-3 ovarian = tested on: SK-OV-3 ovarian
RPMI-8226 leukemia = tested on: RPMI-8226 leukemia
HOP-92 NSCLC = tested on: HOP-92 NSCLC
K-562 leukemia = tested on: K-562 leukemia
OVCAR-8 ovarian = tested on: OVCAR-8 ovarian
LOX IMVI melanoma = tested on: LOX IMVI melanoma
SNB-75 CNS = tested on: SNB-75 CNS
SNB-19 CNS = tested on: SNB-19 CNS
IGROV1 ovarian = tested on: IGROV1 ovarian
T-47D breast = tested on: T-47D breast
SN12C renal = tested on: SN12C renal
786-0 renal = tested on: 786-0 renal
COLO 205 colon = tested on: COLO 205 colon
HCC-2998 colon = tested on: HCC-2998 colon
U251 CNS = tested on: U251 CNS
HCT-116 colon = tested on: HCT-116 colon
SR leukemia = tested on: SR leukemia
HOP-62 NSCLC = tested on: HOP-62 NSCLC
SK-MEL-28 melanoma = tested on: SK-MEL-28 melanoma
OVCAR-3 ovarian = tested on: OVCAR-3 ovarian
RXF 393 renal = tested on: RXF 393 renal
SF-268 CNS = tested on: SF-268 CNS

O=C(Nc1cccc(-n2cc(-c3ccncc3)c(-c3ccc(Cl)c(O)c3)n2)c1)Nc1ccc(Cl)c(C(F)(F)F)c1
GI50 (ACHN renal): 0.89 µM | TGI (ACHN renal): 32.5 µM | GI50 (OVCAR-5 ovarian): 1.71 µM | TGI (OVCAR-5 ovarian): 12.3 µM | GI50 (NCI-H23 lung): 1.04 µM | TGI (NCI-H23 lung): 4 µM | GI50 (A549 NSCLC): 0.914 µM | TGI (A549 NSCLC): 4.07 µM | GI50 (MOLT-4 leukemia): 0.777 µM | TGI (MOLT-4 leukemia): 2.93 µM | GI50 (UO-31 renal): 0.738 µM | TGI (UO-31 renal): 2.59 µM | GI50 (NCI-H226 lung): 1.33 µM | TGI (NCI-H226 lung): 14.6 µM | GI50 (NCI/ADR-RES ovarian): 1.01 µM | TGI (NCI/ADR-RES ovarian): 9.46 µM | GI50 (MCF7 breast): 0.663 µM | TGI (MCF7 breast): 32.5 µM | GI50 (NCI-H522 lung): 0.643 µM | TGI (NCI-H522 lung): 2.19 µM | GI50 (DU-145 prostate): 1.16 µM | TGI (DU-145 prostate): 4.51 µM | GI50 (UACC-257 melanoma): 0.705 µM | TGI (UACC-257 melanoma): 1.88 µM | GI50 (CAKI-1 renal): 0.726 µM | TGI (CAKI-1 renal): 2.3 µM | GI50 (HCT-15 colon): 0.949 µM | TGI (HCT-15 colon): 10.3 µM | GI50 (A498 renal): 1.24 µM | TGI (A498 renal): 7.93 µM | GI50 (KM12 colon): 0.91 µM | TGI (KM12 colon): 3.43 µM | GI50 (SF-539 CNS): 0.73 µM | TGI (SF-539 CNS): 2.2 µM | GI50 (BT-549 breast): 1.16 µM | TGI (BT-549 breast): 5.36 µM | GI50 (SF-295 CNS): 0.656 µM | TGI (SF-295 CNS): 1.71 µM | GI50 (UACC-62 melanoma): 0.609 µM | TGI (UACC-62 melanoma): 1.47 µM | GI50 (MALME-3M melanoma): 0.557 µM | TGI (MALME-3M melanoma): 1.58 µM | GI50 (M14 melanoma): 0.805 µM | TGI (M14 melanoma): 2.3 µM | GI50 (SK-MEL-2 melanoma): 0.784 µM | TGI (SK-MEL-2 melanoma): 1.68 µM | GI50 (MDA-MB-231 breast): 0.538 µM | TGI (MDA-MB-231 breast): 1.48 µM | GI50 (HL-60(TB) leukemia): 1.23 µM | TGI (HL-60(TB) leukemia): 8.99 µM | GI50 (SW-620 colon): 1.07 µM | TGI (SW-620 colon): 3.77 µM | GI50 (HS 578T breast): 1.05 µM | TGI (HS 578T breast): 15.7 µM | GI50 (MDA-MB-435): 0.64 µM | TGI (MDA-MB-435): 1.66 µM | GI50 (PC-3 prostate): 0.533 µM | TGI (PC-3 prostate): 2.11 µM | GI50 (SK-MEL-5 melanoma): 0.528 µM | TGI (SK-MEL-5 melanoma): 1.04 µM | GI50 (CCRF-CEM leukemia): 0.719 µM | TGI (CCRF-CEM leukemia): 2.7 µM | GI50 (TK-10 renal): 1.33 µM | TGI (TK-10 renal): 7.52 µM | GI50 (NCI-H460 lung): 0.963 µM | TGI (NCI-H460 lung): 3.69 µM | GI50 (HT29 colon): 2.05 µM | TGI (HT29 colon): 7.11 µM | GI50 (OVCAR-4 ovarian): 1.12 µM | TGI (OVCAR-4 ovarian): 27.2 µM | GI50 (SK-OV-3 ovarian): 1.27 µM | TGI (SK-OV-3 ovarian): 9.73 µM | GI50 (RPMI-8226 leukemia): 0.487 µM | TGI (RPMI-8226 leukemia): 1.67 µM | GI50 (HOP-92 NSCLC): 0.31 µM | TGI (HOP-92 NSCLC): 1.29 µM | GI50 (K-562 leukemia): 0.768 µM | TGI (K-562 leukemia): 9.36 µM | GI50 (OVCAR-8 ovarian): 0.759 µM | TGI (OVCAR-8 ovarian): 2.28 µM | GI50 (LOX IMVI melanoma): 0.554 µM | TGI (LOX IMVI melanoma): 1.15 µM | GI50 (SNB-75 CNS): 0.514 µM | TGI (SNB-75 CNS): 5.05 µM | GI50 (SNB-19 CNS): 1.17 µM | TGI (SNB-19 CNS): 5.31 µM | GI50 (IGROV1 ovarian): 0.77 µM | TGI (IGROV1 ovarian): 2.43 µM | GI50 (T-47D breast): 0.911 µM | TGI (T-47D breast): 9.01 µM | GI50 (SN12C renal): 1.05 µM | TGI (SN12C renal): 10.3 µM | GI50 (786-0 renal): 1.02 µM | TGI (786-0 renal): 8.25 µM | GI50 (COLO 205 colon): 2.23 µM | TGI (COLO 205 colon): 6.73 µM | GI50 (HCC-2998 colon): 1.39 µM | TGI (HCC-2998 colon): 6.23 µM | GI50 (U251 CNS): 0.542 µM | TGI (U251 CNS): 1.27 µM | GI50 (HCT-116 colon): 0.938 µM | TGI (HCT-116 colon): 3.63 µM | GI50 (SR leukemia): 0.663 µM | TGI (SR leukemia): 2.05 µM | GI50 (HOP-62 NSCLC): 1.04 µM | TGI (HOP-62 NSCLC): 4.75 µM | GI50 (SK-MEL-28 melanoma): 0.928 µM | TGI (SK-MEL-28 melanoma): 3.21 µM | GI50 (OVCAR-3 ovarian): 0.658 µM | TGI (OVCAR-3 ovarian): 1.95 µM | GI50 (RXF 393 renal): 0.557 µM | TGI (RXF 393 renal): 1.67 µM | GI50 (SF-268 CNS): 1.11 µM | TGI (SF-268 CNS): 6.65 µM
